# Data: paper PMC10976095 (Vaccines, 2024)
# pIC50: −log10 of the molar value. Where a SMILES comes first, the peptide text is derived from it.
# Columns and labels:
# Experiment in all cases: biochemical
# Type in all cases: binding
# HLA-A*31:01 = HLA-A*31:01 (Homo sapiens, UniProt P04439, A270S/D185E/E176V/E277Q/F33T/G231S/G80R/H175R/I121M/I218V/I322F/K168Q/L300P/L318F/M331R/P217A/Q94H/R138Q/T323A/T345S/T97I/V358M)
# HLA-A*68:01 = HLA-A*68:01 (Homo sapiens, UniProt P04439, A269V/D185E/E176V/E277Q/E87N/F33Y/G231S/I121M/I166T/I218V/L180W/L300P/L318F/N151K/P208A/P217A/Q86R/R169H/T345S)
# HLA-A*11:01 = HLA-A*11:01 (Homo sapiens, UniProt P04439, A114D/D185E/E176A/F33Y/L180Q/S129P/T187R)
# HLA-A*30:01 = HLA-A*30:01 (Homo sapiens, UniProt P04439, D140H/D185E/E176W/F33S/G80R/H175R/K168Q/R138E/R41S)
# HLA-A*03:01 = HLA-A*03:01 (Homo sapiens, UniProt P04439)
# HLA-A*68:02 = HLA-A*68:02 (Homo sapiens, UniProt P04439, A269V/D140Y/D185E/E176V/E277Q/E87N/F33Y/G231S/I121R/I166T/I218V/L180W/L300P/L318F/N151K/P208A/P217A/Q86R/R138H/R169H/S129P/T345S/V36M)
# HLA-B*07:02 = HLA-B*07:02 (Homo sapiens, UniProt P01889)
# HLA-A*26:01 = HLA-A*26:01 (Homo sapiens, UniProt P04439, A114D/A173T/A270S/D101N/D185E/E277Q/E87N/F33Y/G231S/I121R/I218V/K168Q/L180W/L300P/L318F/P208A/P217A/Q86R/Q94H/R138Q/S129P/T187R/T323A/T345S/V100A/V358M)
SMILES,pIC50 (HLA-A*31:01),pIC50 (HLA-A*68:01),pIC50 (HLA-A*11:01),pIC50 (HLA-A*30:01),pIC50 (HLA-A*03:01),pIC50 (HLA-A*68:02),pIC50 (HLA-B*07:02),pIC50 (HLA-A*26:01)
CC(C)C[C@H](NC(=O)[C@H](CO)NC(=O)[C@H](CS)NC(=O)[C@H](Cc1ccccc1)NC(=O)[C@H](CO)NC(=O)[C@@H](N)CC(C)C)C(=O)N[C@@H](Cc1ccccc1)C(=O)N[C@@H](CC(C)C)C(=O)N1CCC[C@H]1C(=O)N[C@@H](CCCCN)C(=O)O (H-LSFCSLFLPK-OH),6.16,9.00,9.17,6.62,8.37,,,
CC(C)C[C@H](NC(=O)[C@H](C)NC(=O)[C@H](CCC(N)=O)NC(=O)[C@H](CCCCN)NC(=O)[C@H](Cc1ccccc1)NC(=O)[C@H](CO)NC(=O)[C@H](C)NC(=O)[C@@H](NC(=O)[C@@H](N)CCC(=O)O)C(C)C)C(=O)O [EVASFKQAL] (H-EVASFKQAL-OH),,,,,,8.57,6.60,7.07
